These results are taken from ChEMBL document CHEMBL1150976, “The selectivity of protein kinase inhibitors: a further update” (Biochem J, 2007).

Test [1] deals with Serine/threonine-protein kinase PAK 6 (Homo sapiens) (UniProt Q9NQU5). In words: Percentage PAK6 activity remaining in the presence of 0.1uM inhibitor.
Test [2] addresses Mitogen-activated protein kinase 10 (Homo sapiens) (UniProt P53779). In words: Percentage JNK3 activity remaining in the presence of 0.1uM inhibitor.
In test [3] the target is Serine/threonine-protein kinase PAK 4 (Homo sapiens, UniProt O96013). In words: Percentage PAK4 activity remaining in the presence of 0.1uM inhibitor.
Test [4] concerns the target MAP kinase-interacting serine/threonine-protein kinase 1 (Homo sapiens) (UniProt Q9BUB5). Briefly: Percentage MNK1 activity remaining in the presence of 0.1uM inhibitor.
For test [5], the target named is Mitogen-activated protein kinase 3 (Homo sapiens) (UniProt P27361). Briefly: Percentage ERK1 activity remaining in the presence of 0.1uM inhibitor.
Test [6] has as its target Dual specificity mitogen-activated protein kinase kinase 1 (Homo sapiens) (UniProt Q02750). In words: Percentage MKK1 activity remaining in the presence of 0.1uM inhibitor.
Test [7] concerns the target T1, Mitogen-activated protein kinase 15 (Homo sapiens) (UniProt Q8TD08).
T1 sequence (whole entry): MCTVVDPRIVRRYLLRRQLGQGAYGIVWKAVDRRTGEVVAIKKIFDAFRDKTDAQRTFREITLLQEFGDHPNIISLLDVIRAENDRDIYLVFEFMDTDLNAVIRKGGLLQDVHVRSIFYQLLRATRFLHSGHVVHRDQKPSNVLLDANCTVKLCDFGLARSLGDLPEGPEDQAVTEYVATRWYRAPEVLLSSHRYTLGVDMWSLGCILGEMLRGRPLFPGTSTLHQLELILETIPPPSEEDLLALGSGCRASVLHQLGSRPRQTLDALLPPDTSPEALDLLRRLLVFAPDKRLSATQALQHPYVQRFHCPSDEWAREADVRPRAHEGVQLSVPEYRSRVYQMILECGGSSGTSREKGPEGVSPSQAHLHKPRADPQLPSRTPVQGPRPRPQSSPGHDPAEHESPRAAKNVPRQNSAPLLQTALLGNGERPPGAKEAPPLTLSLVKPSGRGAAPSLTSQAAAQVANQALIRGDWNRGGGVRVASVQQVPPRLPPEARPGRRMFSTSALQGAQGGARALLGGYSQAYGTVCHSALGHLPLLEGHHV
Briefly: Percentage ERK8 activity remaining in the presence of 0.1uM inhibitor.

Test [8] has as its target T2, 3-phosphoinositide-dependent protein kinase 1 (Homo sapiens) (UniProt O15530).
T2 sequence (whole entry): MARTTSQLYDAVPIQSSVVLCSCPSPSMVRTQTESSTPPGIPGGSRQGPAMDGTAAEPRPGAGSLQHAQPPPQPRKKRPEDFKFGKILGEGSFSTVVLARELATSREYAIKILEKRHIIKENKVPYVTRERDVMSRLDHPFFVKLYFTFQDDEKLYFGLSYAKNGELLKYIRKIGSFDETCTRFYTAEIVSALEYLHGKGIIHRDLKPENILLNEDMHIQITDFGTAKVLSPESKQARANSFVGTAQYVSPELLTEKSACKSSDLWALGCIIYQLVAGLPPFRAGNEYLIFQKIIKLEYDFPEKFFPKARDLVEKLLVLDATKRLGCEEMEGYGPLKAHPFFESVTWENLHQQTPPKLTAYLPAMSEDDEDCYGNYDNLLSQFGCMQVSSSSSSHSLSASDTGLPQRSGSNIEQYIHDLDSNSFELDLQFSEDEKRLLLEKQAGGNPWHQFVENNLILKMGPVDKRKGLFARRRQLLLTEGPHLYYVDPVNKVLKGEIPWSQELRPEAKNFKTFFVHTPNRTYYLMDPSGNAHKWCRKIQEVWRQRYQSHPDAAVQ
In words: Percentage PDK1 activity remaining in the presence of 0.1uM inhibitor.

Test [9] deals with T3, MAP kinase-activated protein kinase 5 (Homo sapiens) (UniProt Q8IW41).
T3 sequence (whole entry): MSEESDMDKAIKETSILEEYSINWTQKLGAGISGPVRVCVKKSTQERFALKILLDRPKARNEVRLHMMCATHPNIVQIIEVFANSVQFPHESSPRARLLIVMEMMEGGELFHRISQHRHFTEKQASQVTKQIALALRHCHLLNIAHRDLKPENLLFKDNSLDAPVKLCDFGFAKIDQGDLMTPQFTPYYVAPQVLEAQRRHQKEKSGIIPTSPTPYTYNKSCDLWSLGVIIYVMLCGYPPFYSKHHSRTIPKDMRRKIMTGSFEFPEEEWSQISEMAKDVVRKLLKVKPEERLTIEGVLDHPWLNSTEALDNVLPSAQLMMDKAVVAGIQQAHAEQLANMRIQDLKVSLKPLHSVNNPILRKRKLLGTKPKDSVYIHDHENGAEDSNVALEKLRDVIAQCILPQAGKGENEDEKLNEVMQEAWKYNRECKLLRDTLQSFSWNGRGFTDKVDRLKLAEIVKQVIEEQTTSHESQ
Briefly: Percentage PRAK activity remaining in the presence of 0.1uM inhibitor.

Test [10] deals with Serine/threonine-protein kinase N2 (Homo sapiens) (UniProt Q16513). In words: Percentage PRK2 activity remaining in the presence of 0.1uM inhibitor.
The target in test [11] is cAMP-dependent protein kinase catalytic subunit alpha (Homo sapiens, UniProt P17612). Briefly: Percentage PKA activity remaining in the presence of 0.1uM inhibitor.
The target in test [12] is MAP kinase-activated protein kinase 3 (Homo sapiens) (UniProt Q16644). In words: Percentage MAPKAPK3 activity remaining in the presence of 0.1uM inhibitor.
For test [13], the target named is MAP/microtubule affinity-regulating kinase 3 (Homo sapiens) (UniProt P27448). In words: Percentage MARK3 activity remaining in the presence of 0.1uM inhibitor.

Mitogen-activated protein kinase 3 (Homo sapiens), sequence (P27361 whole entry): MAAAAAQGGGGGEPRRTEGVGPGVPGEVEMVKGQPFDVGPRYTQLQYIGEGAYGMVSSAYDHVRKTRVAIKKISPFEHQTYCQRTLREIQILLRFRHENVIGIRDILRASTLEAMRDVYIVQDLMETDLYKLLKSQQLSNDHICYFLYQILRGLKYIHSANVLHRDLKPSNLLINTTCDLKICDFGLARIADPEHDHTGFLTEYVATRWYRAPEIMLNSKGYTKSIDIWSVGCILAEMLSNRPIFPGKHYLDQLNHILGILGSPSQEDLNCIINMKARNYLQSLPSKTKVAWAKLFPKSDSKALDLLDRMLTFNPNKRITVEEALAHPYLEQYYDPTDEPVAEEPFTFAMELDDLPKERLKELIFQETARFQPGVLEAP
Serine/threonine-protein kinase PAK 6 (Homo sapiens), sequence (Q9NQU5 whole entry, looked up): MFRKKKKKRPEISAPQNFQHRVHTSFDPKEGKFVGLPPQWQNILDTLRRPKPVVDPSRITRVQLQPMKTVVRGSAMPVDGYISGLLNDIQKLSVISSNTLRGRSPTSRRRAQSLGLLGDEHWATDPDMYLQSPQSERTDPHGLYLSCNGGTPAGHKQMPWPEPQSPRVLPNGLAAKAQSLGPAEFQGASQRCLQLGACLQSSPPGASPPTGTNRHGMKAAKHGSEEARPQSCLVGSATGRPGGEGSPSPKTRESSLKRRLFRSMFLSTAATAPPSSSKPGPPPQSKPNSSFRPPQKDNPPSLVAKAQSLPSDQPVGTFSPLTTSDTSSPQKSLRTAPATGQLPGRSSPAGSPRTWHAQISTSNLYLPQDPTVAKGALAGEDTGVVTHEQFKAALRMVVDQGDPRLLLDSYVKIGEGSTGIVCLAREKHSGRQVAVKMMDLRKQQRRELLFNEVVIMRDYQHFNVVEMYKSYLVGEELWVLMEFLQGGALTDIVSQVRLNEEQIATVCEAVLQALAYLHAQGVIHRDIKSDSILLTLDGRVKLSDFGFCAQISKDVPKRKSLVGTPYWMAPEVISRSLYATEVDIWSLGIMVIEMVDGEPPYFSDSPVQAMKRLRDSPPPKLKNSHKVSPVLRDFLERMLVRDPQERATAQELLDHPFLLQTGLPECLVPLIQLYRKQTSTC
Serine/threonine-protein kinase N2 (Homo sapiens), sequence (Q16513 whole entry, looked up): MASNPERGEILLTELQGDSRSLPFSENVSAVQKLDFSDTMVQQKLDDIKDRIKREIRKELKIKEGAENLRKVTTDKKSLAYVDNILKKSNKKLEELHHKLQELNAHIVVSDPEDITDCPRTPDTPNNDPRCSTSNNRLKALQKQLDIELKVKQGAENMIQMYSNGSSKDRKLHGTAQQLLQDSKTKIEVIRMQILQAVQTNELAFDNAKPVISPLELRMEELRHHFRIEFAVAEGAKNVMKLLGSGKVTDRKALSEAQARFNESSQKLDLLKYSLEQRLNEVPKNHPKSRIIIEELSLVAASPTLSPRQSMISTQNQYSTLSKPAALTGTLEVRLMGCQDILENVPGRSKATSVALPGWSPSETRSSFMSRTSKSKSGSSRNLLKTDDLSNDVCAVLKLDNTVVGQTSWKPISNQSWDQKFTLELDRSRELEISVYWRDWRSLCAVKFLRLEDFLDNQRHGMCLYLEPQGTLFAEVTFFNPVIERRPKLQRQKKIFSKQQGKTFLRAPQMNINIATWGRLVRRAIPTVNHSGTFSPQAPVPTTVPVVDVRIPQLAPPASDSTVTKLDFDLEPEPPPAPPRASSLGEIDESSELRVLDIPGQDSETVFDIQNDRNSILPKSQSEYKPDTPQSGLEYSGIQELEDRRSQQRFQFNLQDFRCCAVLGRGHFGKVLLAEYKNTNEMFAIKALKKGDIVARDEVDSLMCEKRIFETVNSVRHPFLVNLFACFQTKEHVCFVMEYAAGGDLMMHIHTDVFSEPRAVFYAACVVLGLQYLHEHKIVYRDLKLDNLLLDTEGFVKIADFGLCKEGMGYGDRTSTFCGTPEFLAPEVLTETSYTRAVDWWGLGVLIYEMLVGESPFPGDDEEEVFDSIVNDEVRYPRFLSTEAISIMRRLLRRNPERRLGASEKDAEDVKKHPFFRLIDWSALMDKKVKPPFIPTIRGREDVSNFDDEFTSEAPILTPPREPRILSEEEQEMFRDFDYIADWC
Dual specificity mitogen-activated protein kinase kinase 1 (Homo sapiens), sequence (Q02750 whole entry): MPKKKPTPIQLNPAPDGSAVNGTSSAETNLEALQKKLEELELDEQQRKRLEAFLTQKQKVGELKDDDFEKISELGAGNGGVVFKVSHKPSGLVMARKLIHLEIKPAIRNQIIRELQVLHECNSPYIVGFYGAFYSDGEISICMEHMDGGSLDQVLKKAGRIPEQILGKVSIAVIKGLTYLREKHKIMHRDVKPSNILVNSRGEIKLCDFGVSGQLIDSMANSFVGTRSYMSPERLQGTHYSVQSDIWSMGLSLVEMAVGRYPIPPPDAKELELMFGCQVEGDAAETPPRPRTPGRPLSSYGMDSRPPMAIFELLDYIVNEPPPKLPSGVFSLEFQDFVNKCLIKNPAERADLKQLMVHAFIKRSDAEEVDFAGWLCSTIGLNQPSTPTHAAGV
MAP kinase-activated protein kinase 3 (Homo sapiens), sequence (Q16644 whole entry, looked up): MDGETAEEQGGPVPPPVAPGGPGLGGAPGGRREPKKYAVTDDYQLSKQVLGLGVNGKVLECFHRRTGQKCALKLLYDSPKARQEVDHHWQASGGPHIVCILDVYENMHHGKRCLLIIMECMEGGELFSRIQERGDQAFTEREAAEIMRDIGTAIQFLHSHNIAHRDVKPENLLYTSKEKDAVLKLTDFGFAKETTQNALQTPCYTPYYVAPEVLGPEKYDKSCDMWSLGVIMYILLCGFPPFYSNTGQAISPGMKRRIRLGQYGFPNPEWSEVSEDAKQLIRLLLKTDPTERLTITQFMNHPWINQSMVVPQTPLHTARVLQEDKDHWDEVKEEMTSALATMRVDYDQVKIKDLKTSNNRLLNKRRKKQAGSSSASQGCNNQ
Serine/threonine-protein kinase PAK 4, sequence (O96013 whole entry, looked up): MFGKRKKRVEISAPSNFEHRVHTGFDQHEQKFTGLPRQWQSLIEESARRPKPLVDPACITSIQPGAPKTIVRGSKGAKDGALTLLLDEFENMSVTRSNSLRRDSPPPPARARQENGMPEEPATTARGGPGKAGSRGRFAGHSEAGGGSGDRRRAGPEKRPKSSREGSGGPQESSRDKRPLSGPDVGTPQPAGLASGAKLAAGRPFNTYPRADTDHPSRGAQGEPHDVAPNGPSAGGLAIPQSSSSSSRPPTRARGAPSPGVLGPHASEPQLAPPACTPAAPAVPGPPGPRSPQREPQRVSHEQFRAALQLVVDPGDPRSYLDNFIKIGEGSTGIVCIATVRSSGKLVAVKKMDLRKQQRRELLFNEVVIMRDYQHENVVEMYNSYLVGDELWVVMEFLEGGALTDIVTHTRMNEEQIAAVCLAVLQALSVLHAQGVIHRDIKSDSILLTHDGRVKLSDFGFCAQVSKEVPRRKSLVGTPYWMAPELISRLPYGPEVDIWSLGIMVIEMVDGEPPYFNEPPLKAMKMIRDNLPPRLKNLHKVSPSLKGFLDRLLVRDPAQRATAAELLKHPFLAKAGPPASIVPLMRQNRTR
MAP kinase-interacting serine/threonine-protein kinase 1 (Homo sapiens), sequence (Q9BUB5 whole entry, looked up): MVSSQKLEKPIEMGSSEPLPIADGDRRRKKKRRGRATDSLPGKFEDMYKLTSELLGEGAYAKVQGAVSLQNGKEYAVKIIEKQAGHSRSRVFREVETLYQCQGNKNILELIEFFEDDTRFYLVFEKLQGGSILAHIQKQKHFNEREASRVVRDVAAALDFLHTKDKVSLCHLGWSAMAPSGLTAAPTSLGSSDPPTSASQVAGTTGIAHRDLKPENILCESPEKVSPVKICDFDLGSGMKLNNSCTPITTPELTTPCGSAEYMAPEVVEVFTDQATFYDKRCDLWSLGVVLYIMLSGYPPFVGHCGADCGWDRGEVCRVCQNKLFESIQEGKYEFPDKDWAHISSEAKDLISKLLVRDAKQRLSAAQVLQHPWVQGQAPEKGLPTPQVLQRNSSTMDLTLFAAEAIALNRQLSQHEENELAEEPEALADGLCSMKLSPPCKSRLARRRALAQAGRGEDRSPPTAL
Mitogen-activated protein kinase 10 (Homo sapiens), sequence (P53779 whole entry): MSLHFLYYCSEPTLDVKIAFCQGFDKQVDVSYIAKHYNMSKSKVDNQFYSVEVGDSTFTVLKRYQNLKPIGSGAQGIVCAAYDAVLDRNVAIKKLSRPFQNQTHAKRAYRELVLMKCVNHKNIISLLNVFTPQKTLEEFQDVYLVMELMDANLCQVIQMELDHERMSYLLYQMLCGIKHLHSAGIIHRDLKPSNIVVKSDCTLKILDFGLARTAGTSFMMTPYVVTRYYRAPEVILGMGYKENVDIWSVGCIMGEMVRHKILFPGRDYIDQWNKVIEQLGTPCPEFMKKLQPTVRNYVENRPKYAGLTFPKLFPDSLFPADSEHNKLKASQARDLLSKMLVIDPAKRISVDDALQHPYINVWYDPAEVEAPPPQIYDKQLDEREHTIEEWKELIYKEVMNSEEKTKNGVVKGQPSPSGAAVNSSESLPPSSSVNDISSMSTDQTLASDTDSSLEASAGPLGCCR

Take `Cc1n[nH]c2ccc(-c3cncc(OC[C@@H](N)Cc4c[nH]c5ccccc45)c3)cc12`: the Activity in test [1] was found to be 87%; in [2], 86%; in test [3] it was 90%; in test [4] it was 109%; in [5], 59%; in test [6], 67%. The Activity in test [7] (filed as antagonist) is 28%; in test [8] it was 79%; in test [9] it was 107%; in test [10] (filed as antagonist) it was 2%; in [11] (filed as antagonist) it was 3%; in [12], 96%. For the same compound, the Activity in [13] was 83%.
As to `O=C(NCCCNc1nc(Nc2cccc(NC(=O)N3CCCC3)c2)ncc1I)c1cccs1`, the Activity is 85% in [1]; 93% in [2]; 71% in [3]; 37% in test [4] (filed as antagonist); 66% in test [5]; 33% in test [6] (filed as antagonist). The Activity is 7% in [7] (filed as antagonist); 5% in [8] (filed as antagonist); 83% in [9]; 43% in [10] (filed as antagonist); 72% in test [11]; 102% in test [12]. Also, the Activity in test [13] (filed as antagonist) was 3%.
As for `CN(C)C[C@@H]1CCn2cc(c3ccccc32)C2=C(C(=O)NC2=O)c2cn(c3ccccc23)CCO1`, the Activity was 81% in test [1]; 112% in [2]; 75% in test [3]; 94% in test [4]; 84% in [5]; 42% in test [6] (filed as antagonist). In addition, the Activity in test [7] is 92%; in test [8] (filed as antagonist), 25%; in test [9] it was 82%; in test [10] (filed as antagonist) it was 38%; in test [11], 59%; in test [12], 90%. Besides, the Activity in [13] came out at 73%.
Turning to `Cn1c2ccccc2c2c3c(c4c5ccccc5n(CCC#N)c4c21)CNC3=O`, the Activity is 6% in test [1] (filed as antagonist); 79% in [2]; 5% in test [3] (filed as antagonist); 67% in test [4]; 44% in test [5] (filed as antagonist); 34% in test [6] (filed as antagonist). Further, the Activity in test [7] (filed as antagonist) was 38%; in test [8] (filed as antagonist), 11%; in test [9], 76%; in [10] (filed as antagonist), 5%; in test [11] (filed as antagonist), 50%; in [12], 95%. In addition, the Activity in [13] (filed as antagonist) was 12%.
`CC(C)[C@H](CO)Nc1nc(Nc2cccc(Cl)c2)c2ncn(C(C)C)c2n1` [PURVALANOLA]: the Activity was 67% in test [1]; 100% in test [2]; 43% in [3] (filed as antagonist); 92% in test [4]; 95% in test [5]; 70% in [7]. Also, the Activity in [8] turned out to be 79%; in test [9], 91%; in [10], 81%; in [11] it was 79%; in test [12], 88%; in [13] it was 89%.
With `Cn1cc(C2=C(c3cn(CCCSC(=N)N)c4ccccc34)C(=O)NC2=O)c2ccccc21`, the Activity was 76% in [1]; 102% in [2]; 75% in test [3]; 95% in [4]; 88% in test [5]; 87% in [6]. Moreover, the Activity was 51% in test [7]; 62% in test [8]; 80% in [9]; 8% in test [10] (filed as antagonist); 51% in [11]; 90% in test [12]. Further, the Activity in test [13] came to 77%.
As for `CC(C)CCN1c2nc(Nc3cc(F)c(O)c(F)c3)ncc2N(C)C(=O)C1C` (stereo not given), the Activity in test [1] came out at 102%; in test [2], 97%; in test [3], 81%; in test [4], 87%; in [5], 115%; in [6], 98%. Moreover, the Activity amounted to 82% in test [7]; 94% in test [8]; 89% in test [9]; 97% in [10]; 89% in [11]; 108% in test [12]. The Activity in [13] turned out to be 79%.
